The values that follow come from patent US20250243189A1, “HERBICIDAL IMIDAZOLE-CONTAINING COMPOUNDS” (SYNGENTA CROP PROTECTION AG, priority 2022, published 2025).

Common to all, as to type: in vivo
What all share (details): 250 g/ha, evaluated after 13 days, five-point scale

Assay [1] concerns AMAPA. Kind of assay: Post-emergence herbicidal glasshouse test.
Assay [2] concerns Amaranthus retoflexus (AMARE). Kind of assay: Post-emergence herbicidal glasshouse test. Put shortly:
(§1)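 Pot-grown plants in standard soil; spray at day 1 (pre-em.) or day 8 (post-em.); 250 g/ha unless stated; acetone/water 50:50, 0.5% Tween 20; 24/16° C, 14 h light, 65% RH; % damage at 13 d, 1–5 scale.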

The subject of assay [3] is IPOHE. Kind of assay: Post-emergence herbicidal glasshouse test. In short, it runs like this:
as §1

The test system of assay [4] is Setaria faberi (SETFA). Kind of assay: Post-emergence herbicidal glasshouse test. In short, it runs like this: as §1
The test system of assay [5] is Echinochloa crus-galli (ECHCG). Kind of assay: Post-emergence herbicidal glasshouse test. In short, it runs like this: as §1
In assay [6] the test system is AMAPA. Kind of assay: Pre-emergence herbicidal glasshouse test.
Assay [7] deals with Amaranthus retoflexus (AMARE). Kind of assay: Pre-emergence herbicidal glasshouse test. In short, it runs like this: as §1
Assay [8] has as its system IPOHE. Kind of assay: Pre-emergence herbicidal glasshouse test. In short, it runs like this:
as §1

The test system of assay [9] is Setaria faberi (SETFA). Kind of assay: Pre-emergence herbicidal glasshouse test. In short, it runs like this: as §1
The subject of assay [10] is Echinochloa crus-galli (ECHCG). Kind of assay: Pre-emergence herbicidal glasshouse test. In short, it runs like this:
as §1

Molecules are shown by their SMILES.

In the case of `FC(F)(F)c1cn(Cc2ncc(Cl)cn2)c(-c2ccco2)n1` [Compound 1.016], the “percentage damage caused to the plant, AMAPA” value in the assay with AMAPA [1] and in the assay on AMAPA [6] was 1 (1=0-20%) throughout. Moreover, the “percentage damage caused to the plant, AMARE” value in assay [2] and in assay [7] was 1 (1=0-20%) throughout. Besides, the “percentage damage caused to the plant, IPOHE” value in the assay on IPOHE [3] and in the assay on IPOHE [8] was 1 (1=0-20%) throughout. The “percentage damage caused to the plant, SETFA” value in the assay with Setaria faberi (SETFA) [4] and in the assay with Setaria faberi (SETFA) [9] was 1 (1=0-20%) throughout. Also, the “percentage damage caused to the plant, ECHCG” value in [5] and in assay [10] was 1 (1=0-20%) each time.

As for `Cc1cc(-c2nc(C(F)(F)F)cn2Cc2ncc(Cl)cn2)n(C)n1` [Compound 1.024], the “percentage damage caused to the plant, AMAPA” value with AMAPA [1] and in the assay on AMAPA [6] was 5 (5=81-100%) throughout. Also, the “percentage damage caused to the plant, AMARE” value in [2] and in [7] was 5 (5=81-100%) throughout. In addition, the “percentage damage caused to the plant, IPOHE” value in the assay on IPOHE [3] and in the assay on IPOHE [8] was 5 (5=81-100%) throughout. Besides, the “percentage damage caused to the plant, SETFA” value in the assay on Setaria faberi (SETFA) [4] and in the assay with Setaria faberi (SETFA) [9] was 5 (5=81-100%) in each case. Also, the “percentage damage caused to the plant, ECHCG” value in assay [5] and in assay [10] was 5 (5=81-100%) throughout.

For `FC(F)(F)c1cn(Cc2ncc(Cl)cn2)c(-c2ccsc2Cl)n1` [Compound 1.025], the “percentage damage caused to the plant, AMAPA” value is on record as 3 (3=41-60%) with AMAPA [1] and 5 (5=81-100%) in the assay with AMAPA [6]. In addition, the figures for the “percentage damage caused to the plant, AMARE” value in assay [2] and in assay [7] were 4 (4=61-80%) and 5 (5=81-100%), respectively. Besides, the “percentage damage caused to the plant, IPOHE” value in the assay with IPOHE [3] is 3 (3=41-60%); with IPOHE [8], 4 (4=61-80%). Further, the “percentage damage caused to the plant, SETFA” value in the assay on Setaria faberi (SETFA) [4] is given as 4 (4=61-80%); in the assay with Setaria faberi (SETFA) [9], 5 (5=81-100%). The “percentage damage caused to the plant, ECHCG” value in [5] is listed as 4 (4=61-80%); in assay [10], 5 (5=81-100%).

For `Cc1csc(-c2nc(C(F)(F)F)cn2Cc2ncc(Cl)cn2)c1` [Compound 1.029], the “percentage damage caused to the plant, AMAPA” value with AMAPA [1] and with AMAPA [6] was 5 (5=81-100%) in each case. Moreover, the “percentage damage caused to the plant, AMARE” value in [2] and in [7] was 5 (5=81-100%) in each case. Also, the “percentage damage caused to the plant, IPOHE” value is listed as 2 (2=21-40%) in the assay on IPOHE [3] and 1 (1=0-20%) with IPOHE [8]. In addition, the figures for the “percentage damage caused to the plant, SETFA” value with Setaria faberi (SETFA) [4] and with Setaria faberi (SETFA) [9] were 4 (4=61-80%) and 5 (5=81-100%), respectively. Moreover, the “percentage damage caused to the plant, ECHCG” value in [5] is 4 (4=61-80%); in assay [10], 5 (5=81-100%).

For the molecule `FC(F)(F)c1cn(Cc2ncc(Cl)cn2)c(-c2ccsc2)n1` [Compound 1.030], the “percentage damage caused to the plant, AMAPA” value with AMAPA [1] and with AMAPA [6] was 5 (5=81-100%) throughout. Further, the “percentage damage caused to the plant, AMARE” value in assay [2] and in assay [7] was 5 (5=81-100%) each time. Further, the “percentage damage caused to the plant, IPOHE” value in the assay with IPOHE [3] and with IPOHE [8] was 4 (4=61-80%) in each case. Moreover, the “percentage damage caused to the plant, SETFA” value with Setaria faberi (SETFA) [4] and in the assay on Setaria faberi (SETFA) [9] was 5 (5=81-100%) in each case. Besides, the “percentage damage caused to the plant, ECHCG” value was 4 (4=61-80%) in assay [5] and 5 (5=81-100%) in assay [10].

For `FC(F)(F)c1cn(Cc2ncc(Cl)cn2)c(-c2ccns2)n1` [Compound 1.033], the “percentage damage caused to the plant, AMAPA” value in the assay with AMAPA [1] and in the assay on AMAPA [6] was 5 (5=81-100%) throughout. For the same molecule, the “percentage damage caused to the plant, AMARE” value in assay [2] and in [7] was 5 (5=81-100%) in each case. Further, the entries for the “percentage damage caused to the plant, IPOHE” value with IPOHE [3] and with IPOHE [8] were 4 (4=61-80%) and 5 (5=81-100%), respectively. The “percentage damage caused to the plant, SETFA” value in the assay with Setaria faberi (SETFA) [4] and in the assay on Setaria faberi (SETFA) [9] was 5 (5=81-100%) each time. In addition, the “percentage damage caused to the plant, ECHCG” value in [5] and in [10] was 5 (5=81-100%) throughout.

For the molecule `FC(F)(F)c1cn(Cc2ncc(Cl)cn2)c(-c2cccs2)n1` [Compound 1.034], the “percentage damage caused to the plant, AMAPA” value is given as 4 (4=61-80%) in the assay with AMAPA [1] and 5 (5=81-100%) in the assay on AMAPA [6]. Besides, the figures for the “percentage damage caused to the plant, AMARE” value in [2] and in assay [7] were 4 (4=61-80%) and 5 (5=81-100%), respectively. Besides, the “percentage damage caused to the plant, IPOHE” value with IPOHE [3] is reported as 4 (4=61-80%); in the assay on IPOHE [8], 2 (2=21-40%). Also, the “percentage damage caused to the plant, SETFA” value with Setaria faberi (SETFA) [4] and with Setaria faberi (SETFA) [9] was 2 (2=21-40%) in each case. In addition, the “percentage damage caused to the plant, ECHCG” value in assay [5] and in [10] was 2 (2=21-40%) in each case.

As to `Cc1sccc1-c1nc(C(F)(F)F)cn1Cc1ncc(Cl)cn1` [Compound 1.035], the “percentage damage caused to the plant, AMAPA” value with AMAPA [1] is on record as 4 (4=61-80%); in the assay on AMAPA [6] it was 5 (5=81-100%). Further, the “percentage damage caused to the plant, AMARE” value in assay [2] and in assay [7] was 5 (5=81-100%) each time. Further, the “percentage damage caused to the plant, IPOHE” value in the assay on IPOHE [3] and in the assay on IPOHE [8] was 4 (4=61-80%) each time. Also, the “percentage damage caused to the plant, SETFA” value with Setaria faberi (SETFA) [4] and with Setaria faberi (SETFA) [9] was 5 (5=81-100%) in each case. The “percentage damage caused to the plant, ECHCG” value in assay [5] and in assay [10] was 5 (5=81-100%) in each case.

In the case of `FC(F)(F)c1cn(Cc2ncc(Cl)cn2)c(-c2cc(Cl)sc2Cl)n1` [Compound 1.037], the “percentage damage caused to the plant, AMAPA” value was 3 (3=41-60%) with AMAPA [1] and 5 (5=81-100%) in the assay on AMAPA [6]. The results for the “percentage damage caused to the plant, AMARE” value in assay [2] and in [7] were 4 (4=61-80%) and 5 (5=81-100%), respectively. Besides, the “percentage damage caused to the plant, IPOHE” value in the assay with IPOHE [3] was 3 (3=41-60%); with IPOHE [8], 5 (5=81-100%). In addition, the entries for the “percentage damage caused to the plant, SETFA” value in the assay with Setaria faberi (SETFA) [4] and in the assay with Setaria faberi (SETFA) [9] were 3 (3=41-60%) and 4 (4=61-80%), respectively. For the same molecule, the “percentage damage caused to the plant, ECHCG” value in [5] is listed as 3 (3=41-60%); in assay [10], 4 (4=61-80%).
